From patent US4628115A, “Substituted 4-acetyl-3-hydroxyphenoxy alkanoic acids” (Hoffmann-La Roche Inc., priority 1985, dated 1986)
Read-outs that look alike come from different tables or passages of the source.

Tests used:
[1] = tested on: SRS-A induced constriction of the guinea pig ileum; experiment: Guinea Pig Ileum, In Vitro (SRS-A antagonism); format: cell-based; details: Cavia porcellus
Procedure: The guinea pig ileum bioassay system has been described by Orange and Austen, Adv. Immunol. […] A 1.5 cm segment is removed from animals weighing 300-400 g. and suspended in an organ bath containing 10 ml. of Tyrodes solution with 10^-6 M atropine sulfate and 10^-6 M pyrilamine maleate. […] The SRS-A utilized in this screen is obtained by challenging chopped lung fragments from actively sensitized guinea pigs with egg albumin, in vitro. A dose-response curve to SRS-A challenge is established for the ileum. […] The drug concentration which inhibits, by 50%, the SRS-A induced constriction of the guinea pig ileum is determined.

LTE4 [2] = experiment: Rat Skin Permeability, in Vivo (LTE4-induced wheal); details: 10 mg/kg i.v., LTE4 intradermal, 30 min, 5 animals
Procedure: In this model the ability of LTE4 to increase vascular permeability in rat skin was utilized. Anesthetized rats, pretreated for 30 minutes with an antihistamine, pyrilamine maleate, (50 mg/kg i.p.) and a serotonin antagonist, methylsergide maleate (4 mg/kg i.p.), were injected intradermally with a dose of LTE4 which gave a maximum wheal (in 0.05 ml saline). After introduction of test drug (at 10 mg/kg, i.v.) the animals were immediately treated intravenously with Evans blue dye i.v. (0.5%) in the tail vein resulting in the formation of a skin wheal. Thirty minutes later the animals were sacrificed and the skin wheal size was measured. The average response in 5 animals (4 intradermal injections per animal) treated with test compound was compared to that obtained in a similar group of control animals to determine the percent inhibition by the drug. A representative compound of the present invention, i.e., 6-(4-acetyl-3-hydroxy-2-propylphenoxy)hexanoic acid, caused a 35% reduction in skin wheal when tested at 10 mg/kg i.v.

LTE4 [3] = experiment: Aerosol Test (LTE4-induced bronchoconstriction, drug by inhalation); format: in vivo, guinea pig (Hartley strain, male); details: 1% (W/V) aerosol solution, five minute exposure, LTE4 i.v. challenge
Procedure: Male guinea pigs (Hartley strain) weighing 300 to 500 g are anesthetized with urethane (2 g/kg) intraperitoneally and a polyethylene cannula is inserted into the jugular vein for test compound administration. Tracheal pressure is recorded from a cannula inserted in the trachea and connected to a Statham pressure transducer. After surgical preparation of the animals, a period of time is allowed for pulmonary functions to stabilize. For testing purposes, drugs are administered according to the following protocol. Propranolol (0.1 mg/kg) is administered intravenously while the animals breathed spontaneously. Five minutes thereafter, the animals are exposed for a five minute period to a 1% (W/V) aerosol solution of test compound (adjusted to an alkaline pH where necessary for compound solubilization) or to distilled water of the appropriate pH (for control purposes). A Monaghan (Model 750) ultrasonic nebulizer is used to administer all compounds by inhalation. Aqueous solutions are prepared fresh and introduced into the chamber of the nebulizer. The output of the nebulizer is made available to the animal by directing a bias flow of aerosol through a y tube connected to the tracheal cannula. At the end of the exposure period, the animals are paralyzed with succinylcholine (1.2 mg/kg, i.v.) and mechanically respirated (Harvard rodent respirator) at 40 breaths/min and 2.5 cc tidal volume. […]

leukotriene E4 = experiment: Guinea Pig Bronchoconstriction, In Vivo (leukotriene E4 i.v. challenge, drug i.v.); design: species or system guinea pig (Hartley strain, male); details: 10 mg/kg i.v., maximally constrictory dose of leukotriene E4 i.v.
Procedure: Male guinea pigs (Hartley strain) weighing 300 to 450 grams are anesthetized with urethane (2 g/Kg) intraperitoneally and a polyethylene cannula is inserted into the jugular vein for intravenous drug administration. Tracheal pressure is recorded from a cannula inserted in the trachea and connected to a Statham pressure transducer. Respiration is paralyzed with succinyl choline (1.2 mg/kg, i.v.) and the animals are mechanically respirated ([…] rodent respirator) at 40 breaths/minute and 2.5 cc tidal volume. The minutes thereafter, propranolol (0.1 mg/kg, i.v.) is administered. Five minutes later, the animals are pretreated intravenously for 30 seconds (at 10 mg/kg) with test drug or control vehicle. The animals are subsequently challenged with a maximally constrictory dose of leukotriene E4 also administered intravenously. The change (cm H2 O) between pre and peak ventilatory pressure readings is averaged calculated from the following formula: [formula]

[4] = guinea pig ileum, SRS-A challenge at EC50, 37° C., Table I, read-out: In vitro SRSA Antagonism Test, Guinea Pig Ileum IC50

Row | Structure (SMILES) | IC50 [1, 4] [µM] | further results
1 | CCCc1c(OCCCCC(=O)O)ccc(C(C)=O)c1O [(CH2)4, 5-(4-Acetyl-3-hydroxy-2-propylphenoxy)pentanoic acid] | 5 | 
2 | CCCc1c(OCCCCCC(=O)O)ccc(C(C)=O)c1O [(CH2)5, 6-(4-Acetyl-3-hydroxy-2-propylphenoxy)hexanoic acid] | 1 | reduction in skin wheal (LTE4 [2]): 35%; inhibition of the bronchoconstriction (LTE4 [3]): 36%; inhibition of leukotriene E4 bronchoconstriction (leukotriene E4): 73%
3 | CCCc1c(OCC(O)COc2ccc3c(=O)cc(C(=O)O)oc3c2CCC)ccc(C(C)=O)c1O (centres unmarked) [7-[3-(4-acetyl-3-hydroxy-2-propylphenoxy)-2-hydroxypropoxy]-4-oxo-8-propyl-4 H-1-benzopyran-2-carboxylic acid, reference compound] |  | inhibition of leukotriene E4 bronchoconstriction (leukotriene E4): 98%; IC50 ([1]; read-out: IC50 (standard SRS-A antagonist)): 0.035 µM
4 | CCCc1c(OCCCC#CC(=O)O)ccc(C(C)=O)c1O [(CH2)3 CC, 6-(4-Acetyl-3-hydroxy-2-propylphenoxy)-2-hexynoic acid] | 1 | 
5 | CCCc1c(OCCCCCCC(=O)O)ccc(C(C)=O)c1O [(CH2)6, 7-(4-Acetyl-3-hydroxy-2-propylphenoxy)heptanoic acid] | 5 | 
6 | CCCc1c(OCC#CCCCC(=O)O)ccc(C(C)=O)c1O [CH2 CC(CH2)3, 7-(4-Acetyl-3-hydroxy-2-propylphenoxy)-5-heptynoic acid] | 1 | 
7 | CCCc1c(OCCCCCCCC(=O)O)ccc(C(C)=O)c1O [(CH2)7, 8-(4-Acetyl-3-hydroxy-2-propylphenoxy)octanoic acid] | 5 | 
8 | CCCc1c(OCCCC(=O)O)ccc(C(C)=O)c1O [(CH2)3, 4-(4-Acetyl-3-hydroxy-2-propylphenoxy)butanoic acid] | 10 | 
9 | CCCc1c(OCC(=O)O)ccc(C(C)=O)c1O [CH2, (4-Acetyl-3-hydroxy-2-propylphenoxy)acetic acid] | 10 | 
10 | CCCc1c(OCCC(=O)O)ccc(C(C)=O)c1O [(CH2)2, 3-(4-Acetyl-3-hydroxy-2-propylphenoxy)propanoic acid] | 10 | 
11 | CCCc1c(OCCCCCCCCCCC(=O)O)ccc(C(C)=O)c1O [(CH2)10, 11-(4-Acetyl-3-hydroxy-2-propylphenoxy)undecanoic acid] | 10 | 
12 | CCCc1c(OCCOCCOCCOCCC(=O)O)ccc(C(C)=O)c1O [(CH2)2 O(CH2)2 O(CH2)2 O(CH2)2, 3-[2-[2-[2-(4-Acetyl-3-hydroxy-2-propylphenoxy)ethoxy]ethoxy]ethoxy]propanoic acid semihydrate] | 6 | 
13 | CCCc1c(OCCOCCC(=O)O)ccc(C(C)=O)c1O [(CH2)2 O(CH2)2, 3-[2-(4-Acetyl-3-hydroxy-2-propylphenoxy)ethoxy]propanoic acid semihydrate] | 5 | 
